The text below walks through data of patent publication US20250188427A1, “METHOD OF PRODUCING TARGET VIRUS AND CULTURE COMPOSITION” (FUJIFILM Corporation, priority 2022, published 2025).

Molecules are shown by their SMILES.

For this assay, the system named is AAV producer cell (HEK293). The experiment in a line: AAV titer by ddPCR, JQ1 treatment with and without wash out (FIG. 4). The class given is cell-based, human. The following applies: JQ1 4 μmol/L for 24 hours, medium exchanged to medium without JQ1 (with doxycycline 0.5 μg/mL), recovered after further 48 hours; versus 72 hours JQ1. As to the method: The HEK cell culture solution, which had been cultured for 72 hours after the gene introduction under the conditions of 37° C. and 8% CO2, was collected, and the cells were disrupted by freezing and thawing at −80° C. Then, the supernatant was collected by centrifugation at 13,800×g, 2 mmol/L (final concentration) MgCl2, and 25 U/mL Benzonase was added thereto, and a reaction was carried out at 37° C. for 2 hours to digest gDNA (genomic DNA) and residual plasmid. The sample after the reaction was incubated at 95° C. for 15 minutes, 70° C. for 3 minutes, 40° C. for 3 minutes, and 20° C. for 3 minutes in this order, to inactivate Benzonase, and the reactant was used as a ddPCR (Droplet Digital PCR) sample. […]. The sequences of the seq18, seq19, and seq20 are set forth in SEQ ID NOs: 18 to 20 in the sequence list.
In ddPCR, droplets were formed from the prepared solution using a droplet forming apparatus, and subsequently incubated at 95° C. for 10 minutes, 94° C. for 30 seconds, and 55° C. in this order for 40 cycles, and then incubated at 98° C. for 10 minutes. Measurement was performed using a droplet reader, and the AAV genomic titer (vg/mL) was calculated.
Furthermore, the produced AAV producer cell was seeded at 5×10^5 cells/mL and incubated for 6 hours, and then doxycycline (final concentration: 0.5 μg/mL) and JQ1 (final concentration: 4 μmol/L) were added. […]

With `Cc1sc2c(c1C)C(c1ccc(Cl)cc1)=N[C@@H](CC(=O)OC(C)(C)C)c1nnc(C)n1-2` [(+)-JQ1, (S)-(+)-tert-butyl 2-(4-(4-chlorophenyl)-2,3,9-trimethyl-6H-thieno[3,2-f][1,2,4]triazolo[4,3-a][1,4]diazepin-6-yl)acetate], the “AAV titer per cell” value was “further improved”.
